Experimental findings from ChEMBL document CHEMBL5236638, “Optimization of First-in-Class Dual-Acting FFAR1/FFAR4 Allosteric Modulators with Novel Mode of Action” (ACS Med Chem Lett, 2022) are described below.

Activity calls are given as the source filed them. The calls are words filed in the database; no cut-off is given here.

Common to all, as to assay type: cell-based
Test [1] has as its system Free fatty acid receptor 1 (Homo sapiens), O14842 [L262W]. Put plainly: Agonist activity at N-terminal FLAG tagged human FFAR1 L262W mutant transfected in African green monkey COS-7 cells assessed as accumulation of inositol phosphate by measuring change in efficacy incubated for 90 mins by TopCount NXT counter based analysis relative to control.
For test [2], the system named is Free fatty acid receptor 1 (Homo sapiens), O14842 [A83F]. Put plainly: Agonist activity at N-terminal FLAG tagged human FFAR1 A83F mutant transfected in African green monkey COS-7 cells assessed as accumulation of inositol phosphate incubated for 90 mins by TopCount NXT counter based analysis. As to conditions: filed as agonist.
Test [3] concerns Free fatty acid receptor 1 (Homo sapiens), O14842 [K259A]. Put plainly: Agonist activity at N-terminal FLAG tagged human FFAR1 K259A mutant transfected in African green monkey COS-7 cells assessed as accumulation of inositol phosphate by measuring change in efficacy incubated for 90 mins by TopCount NXT counter based analysis relative to control.
Chain of Free fatty acid receptor 1 (Homo sapiens), O14842 [K259A] (O14842 whole entry K259A): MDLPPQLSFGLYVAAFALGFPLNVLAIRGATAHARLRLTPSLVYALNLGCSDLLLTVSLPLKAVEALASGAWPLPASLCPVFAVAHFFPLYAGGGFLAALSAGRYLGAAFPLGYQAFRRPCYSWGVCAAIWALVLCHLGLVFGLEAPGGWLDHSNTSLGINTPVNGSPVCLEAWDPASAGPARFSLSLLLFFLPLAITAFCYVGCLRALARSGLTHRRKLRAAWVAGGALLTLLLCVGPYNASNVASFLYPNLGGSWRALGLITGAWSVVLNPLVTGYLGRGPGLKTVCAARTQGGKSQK

Chain of Free fatty acid receptor 1 (Homo sapiens), O14842 [L262W] (O14842 whole entry L262W): as the sequence (O14842 whole entry K259A) above, with A259K, L262W counted along it
Chain of Free fatty acid receptor 1 (Homo sapiens), O14842 [A83F] (O14842 whole entry A83F): as the sequence (O14842 whole entry K259A) above, with A83F, A259K counted along it

As for `COc1ccc(F)c(-c2ccc(COc3ccc4c(c3)[C@]3(CC4)C[C@H]3C(=O)O)cc2[C@@H]2CCCC2(C)C)c1`, the Efficacy in test [1] and in test [3] was -25% in each case. Besides, the result in test [2] was Active.
